Data on one compound can be found in patent publication US12391825B2, “Thermoplastic polymer composition for micro 3D printing and uses thereof” (priority 2020, dated 2025).

The subject of this test is cardiac tissues. To be noted: compared with cardiac tissue without compound (baseline).

Experimental: Human iPSC cardiomyocytes (CMs) were differentiated from hiPSC line BJ1D by using monolayer differentiation protocols (Lian, et al. 2013; Yang, et al. 2008). The disassociation of cardiomyocytes into single cells was performed at day 21 of stem cell differentiation, using previous methods (Yang, et al. 2008). The disassociated cells and cardiac fibroblast (Lonza, NHCF-V) were mixed to reach a cell number ratio of 10:1. The resultant cells were remixed in a collagen hydrogel at a cell number of 5.5×10^7 cells/mL. […]
Cardiac cultured in a multiwell plate was placed in a chamber (37° C., 5% CO2) of fluorescent microscope (Olympus Corporation). ⅓rd of the media was extracted from one well of the multiwell-plate device. […] After 10-15 min, videos in the green and red channel were recorded. The force and Ca^2+ transients were measured under electrical stimulation at 1 Hz. […] Ca^2+ transients were recorded under fluorescent microscope using a green-light channel (λex490 nm/λem525 nm). The ratio of peak fluorescence to baseline fluorescence intensity was measured the relative Ca^2+ change in the tissues by Image J software (NIH) as described previously (Zhao, et al. 2019). […]
With built-in sensors and electrodes, the contractile force of tissues can be measured in situ. […]

On to `CCN(CC)CC(=O)Nc1c(C)cccc1C` [lidocaine], for which the “electrical excitability of a cardiac tissue” value is “inhibited”.
